This passage reports IC50 results from ChEMBL document CHEMBL3886169, “Oxazine derivatives and their use in the treatment of disease” (2015).

The target of one test is Beta-secretase 1 (Homo sapiens, UniProt P56817). Kind of test: Inhibition Assay: Recombinant BACE-1 (extracellular domain, expressed in baculovirus and purified using standard methods) at 0.1 to 1 nM concentrations is incubated with the test compound at various concentrations for 1 hour at room temperature in 100 mM acetate buffer, pH 4.5, containing 0.1% CHAPS. Activity was measured using a final concentration of 3 μM of the fluorescence-quenched substrate Q-C(HSO3)-Ile-Asp-Leu-Ala-Val-Leu-Asp-HN-CH2-CH2-Mca, where Q=2-nitro-5-amino benzoic acid and Mca=7-methoxy-4-coumarinyl acetic acid. Catalytic turnover was monitored in a Spectramax Gemini fluorescence plate reader (Molecular Devices) in black 96-well microplates using excitation/emission wavelength of 325 nm and 400 nm, respectively. Fluorescence increase was followed for 15 min, in 1 minute's intervals. The fluorescence/time slopes were calculated from duplicate wells and from wells without inhibitor and the IC50 values were calculated using a logistic 4-parameter model.

The next test addresses T1, Beta-secretase 2 (Homo sapiens, UniProt Q9Y5Z0).
T1 sequence (Q9Y5Z0 whole entry): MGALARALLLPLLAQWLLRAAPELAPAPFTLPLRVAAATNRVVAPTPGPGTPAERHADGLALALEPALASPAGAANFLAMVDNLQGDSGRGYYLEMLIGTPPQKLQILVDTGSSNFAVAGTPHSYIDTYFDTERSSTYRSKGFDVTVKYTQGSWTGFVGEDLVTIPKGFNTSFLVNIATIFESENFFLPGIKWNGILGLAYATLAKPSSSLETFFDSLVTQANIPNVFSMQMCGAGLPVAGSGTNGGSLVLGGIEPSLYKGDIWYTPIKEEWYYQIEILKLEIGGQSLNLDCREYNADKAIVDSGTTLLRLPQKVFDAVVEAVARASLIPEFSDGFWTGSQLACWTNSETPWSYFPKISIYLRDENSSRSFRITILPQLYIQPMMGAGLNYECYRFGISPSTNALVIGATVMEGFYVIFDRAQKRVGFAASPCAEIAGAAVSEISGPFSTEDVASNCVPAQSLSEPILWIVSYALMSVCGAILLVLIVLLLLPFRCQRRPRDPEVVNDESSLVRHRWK
Kind of test: Fluorescence increase was followed for 15 min, in 1 minute's intervals. The fluorescence/time slopes were calculated from duplicate wells and from wells without inhibitor and the IC50 values were calculated using a logistic 4-parameter model.

Chain of Beta-secretase 1 (P56817 whole entry, the tested form may be a part): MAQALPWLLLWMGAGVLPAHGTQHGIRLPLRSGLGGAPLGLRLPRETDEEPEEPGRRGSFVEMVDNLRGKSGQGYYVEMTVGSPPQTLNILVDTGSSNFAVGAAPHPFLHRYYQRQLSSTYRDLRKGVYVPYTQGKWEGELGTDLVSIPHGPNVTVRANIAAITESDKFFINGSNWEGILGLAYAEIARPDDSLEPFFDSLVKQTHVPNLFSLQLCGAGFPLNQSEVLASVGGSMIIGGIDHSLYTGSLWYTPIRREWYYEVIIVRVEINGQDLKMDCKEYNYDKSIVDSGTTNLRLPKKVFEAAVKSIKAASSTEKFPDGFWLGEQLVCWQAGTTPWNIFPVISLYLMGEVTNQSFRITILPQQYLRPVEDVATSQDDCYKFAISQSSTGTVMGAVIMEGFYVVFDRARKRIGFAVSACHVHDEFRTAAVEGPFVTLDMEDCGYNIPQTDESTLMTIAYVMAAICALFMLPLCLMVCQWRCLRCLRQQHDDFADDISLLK

By IC50 is commonly meant the midpoint of a concentration-inhibition curve. With `COc1cnc(C(=O)Nc2ccc(F)c([C@@]3(C)N=C(N)OCC3(F)F)n2)c(C)c1`, the results for the half-maximal inhibitory concentration (IC50) at Beta-secretase 1 and on Beta-secretase 2 were 270 nM and 93 nM, respectively.
